≈ marks a conversion by molar mass, not a printed value.
Tests used:
Experiment in all cases: In vitro antibacterial MIC/MBC test
Type in all cases: cell-based
S. aureus 41-81 = details: Staphylococcus aureus, 4181, S. aureus 41-81
Experimental: (§1) Win 52,522 and Win 35,439 were solubilized in 0.1 ml of 0.5 N NaOH/mg of compound and diluted in sterile distilled water to 160 mcg/ml. Vancomycin and methicillin were solubilized in sterile distilled water to 1250 mcg/ml of base compound. The stock solutions were sterilized by filtration through membrane filters with a 0.45 μm pore size.
(§2) The bacterial cultures listed in Table I (hereinbelow) were grown overnight at 37° C. in MHB for all cultures except the Streptococcus strains. These were grown in BHI+10% NHS. The overnight broth cultures were adjusted to an optical density of 0.10 (650 nm, B L Spectronic 20) in sterile distilled water and subsequently diluted to 6.7×10^6 cells/ml in MHB or BHI+1% NHS.
(§3) Serial two-fold dilutions of the compound solutions were prepared in MHB (or in BHI+1% NHS for tests with Streptococci) and dispensed into 96-well microtiter trays in a volume of 0.1 ml/well using a Sandy Springs (Bellco Glass Co.) dispenser. The trays were then inoculated with 0.0015 ml of a suspension containing 6.7×10^6 cells/ml of the appropriate inoculum using a MIC-2000 inoculator (Dynatech Corp.) resulting in a final inoculum of approximately 1×10^4 cells/well or 1×10^5 cells/ml. The trays were incubated at 37° C. for 18-20 hours and the minimal inhibitory concentration (MIC), defined as the lowest concentration of compound to inhibit visible bacterial growth, was recorded.
(§4) After the MIC values were recorded, the contents in the microtiter trays were thoroughly mixed on a Bellco Mini-orbital Shaker (Bellco Glass Co.) for 3 min. at a setting of 8. A portion (0.0015 ml) from each well was then transferred via an MIC-2000 inoculator to plates containing MHA or BHI agar+10% NHS. The plates were incubated at 37° C. for 18-20 hrs. The minimal bactericidal concentration (MBC), defined as the lowest concentration of compound that prevented the formation of a recognizable colony on the agar surface, was recorded.

S. aureus 39881 = details: Staphylococcus aureus, S. aureus 39881
Experimental: as §1, §2, §3, §4

S. enterococcus 0-2-13 = details: 0213, S. enterococcus 0-2-13
Experimental: as §1, §2, §3, §4

S. aureus 4-81 = details: Staphylococcus aureus, 481, S. aureus 4-81
Experimental: as §1, §2, §3, §4

S. aureus 21-81A = details: Staphylococcus aureus, 2181A, S. aureus 21-81A
Experimental: as §1, §2, §3, §4

S. epidermidis 1-3-H = details: Staphylococcus epidermidis, 13H, S. epidermidis 1-3-H
Experimental: as §1, §2, §3, §4

S. aureus S-500 = details: Staphylococcus aureus, S500, S. aureus S-500
Experimental: as §1, §2, §3, §4

S. epidermidis (17917) = details: Staphylococcus epidermidis, ATCC17917, S. epidermidis ATCC No. 17917
Experimental: as §1, §2, §3, §4

S. aureus VA16951 = details: Staphylococcus aureus, S. aureus VA16951
Experimental: as §1, §2, §3, §4

S. faecalis (11700) = details: Enterococcus faecalis, ATCC11700, S. faecalis ATCC No. 11700
Experimental: as §1, §2, §3, §4

S. aureus Glorgio = details: Staphylococcus aureus, S. aureus Glorgio
Experimental: as §1, §2, §3, §4

S. pneumoniae Type I = details: Streptococcus pneumoniae, S. pneumoniae Type I
Experimental: as §1, §2, §3, §4

S. aureus 13-8-A = details: Staphylococcus aureus, 138A, S. aureus 13-8-A
Experimental: as §1, §2, §3, §4

S. aureus Smith = details: Staphylococcus aureus, S. aureus Smith
Experimental: as §1, §2, §3, §4

S. aureus 10-81 = details: Staphylococcus aureus, 1081, S. aureus 10-81
Experimental: as §1, §2, §3, §4

S. epidermidis 2-1-B = details: Staphylococcus epidermidis, 21B, S. epidermidis 2-1-B
Experimental: as §1, §2, §3, §4

S. aureus 24-81 = details: Staphylococcus aureus, 2481, S. aureus 24-81
Experimental: as §1, §2, §3, §4

S. aureus S-234 = details: Staphylococcus aureus, S234, S. aureus S-234
Experimental: as §1, §2, §3, §4

S. faecalis 4510 = details: Enterococcus faecalis, S. faecalis 4510
Experimental: as §1, §2, §3, §4

S. aureus (25923) = details: Staphylococcus aureus, ATCC25923, S. aureus ATCC No. 25923
Experimental: as §1, §2, §3, §4

S. aureus 34-81 = details: Staphylococcus aureus, 3481, S. aureus 34-81
Experimental: as §1, §2, §3, §4

S. epidermidis (12228) = details: Staphylococcus epidermidis, ATCC12228, S. epidermidis ATCC No. 12228
Experimental: as §1, §2, §3, §4

SMILES: CCn1cc(C(=O)O)c(=O)c2ccc(-c3cc(C)nc(C)c3)cc21 [Win 35,439, 1-ethyl-1,4-dihydro-7-(2,6-dimethyl-4-pyridinyl)-4-oxo-3-quinolinecarboxylic acid]
- MBC (S. aureus 41-81; read-out: MBC): 0.25 µg/mL (≈ 0.776 µM)
- MIC (S. aureus 41-81; read-out: MIC): 0.06 µg/mL (≈ 0.186 µM)
- MBC (S. aureus 39881; read-out: MBC): 0.06 µg/mL (≈ 0.186 µM)
- MIC (S. aureus 39881; read-out: MIC): 0.06 µg/mL (≈ 0.186 µM)
- MBC (S. enterococcus 0-2-13; read-out: MBC): 2 µg/mL (≈ 6.2 µM)
- MIC (S. enterococcus 0-2-13; read-out: MIC): 2 µg/mL (≈ 6.2 µM)
- MBC (S. aureus 4-81; read-out: MBC): 0.125 µg/mL (≈ 0.388 µM)
- MIC (S. aureus 4-81; read-out: MIC): 0.06 µg/mL (≈ 0.186 µM)
- MBC (S. aureus 21-81A; read-out: MBC): 0.125 µg/mL (≈ 0.388 µM)
- MIC (S. aureus 21-81A; read-out: MIC): 0.06 µg/mL (≈ 0.186 µM)
- MBC (S. epidermidis 1-3-H; read-out: MBC): 0.25 µg/mL (≈ 0.776 µM)
- MIC (S. epidermidis 1-3-H; read-out: MIC): 0.25 µg/mL (≈ 0.776 µM)
- MBC (S. aureus S-500; read-out: MBC): 0.25 µg/mL (≈ 0.776 µM)
- MIC (S. aureus S-500; read-out: MIC): 0.125 µg/mL (≈ 0.388 µM)
- MBC (S. epidermidis (17917); read-out: MBC): 0.5 µg/mL (≈ 1.55 µM)
- MIC (S. epidermidis (17917); read-out: MIC): 0.5 µg/mL (≈ 1.55 µM)
- MBC (S. aureus VA16951; read-out: MBC): 0.06 µg/mL (≈ 0.186 µM)
- MIC (S. aureus VA16951; read-out: MIC): 0.06 µg/mL (≈ 0.186 µM)
- MBC (S. faecalis (11700); read-out: MBC): 1 µg/mL (≈ 3.1 µM)
- MIC (S. faecalis (11700); read-out: MIC): 1 µg/mL (≈ 3.1 µM)
- MBC (S. aureus Glorgio; read-out: MBC): 0.125 µg/mL (≈ 0.388 µM)
- MIC (S. aureus Glorgio; read-out: MIC): 0.03 µg/mL (≈ 0.0931 µM)
- MBC (S. pneumoniae Type I; read-out: MBC): 2 µg/mL (≈ 6.2 µM)
- MIC (S. pneumoniae Type I; read-out: MIC): 2 µg/mL (≈ 6.2 µM)
- MBC (S. aureus 13-8-A; read-out: MBC): 0.125 µg/mL (≈ 0.388 µM)
- MIC (S. aureus 13-8-A; read-out: MIC): 0.06 µg/mL (≈ 0.186 µM)
- MBC (S. aureus Smith; read-out: MBC): 0.125 µg/mL (≈ 0.388 µM)
- MIC (S. aureus Smith; read-out: MIC): 0.125 µg/mL (≈ 0.388 µM)
- MBC (S. aureus 10-81; read-out: MBC): 0.125 µg/mL (≈ 0.388 µM)
- MIC (S. aureus 10-81; read-out: MIC): 0.125 µg/mL (≈ 0.388 µM)
- MBC (S. epidermidis 2-1-B; read-out: MBC): 0.25 µg/mL (≈ 0.776 µM)
- MIC (S. epidermidis 2-1-B; read-out: MIC): 0.25 µg/mL (≈ 0.776 µM)
- MBC (S. aureus 24-81; read-out: MBC): 0.125 µg/mL (≈ 0.388 µM)
- MIC (S. aureus 24-81; read-out: MIC): 0.06 µg/mL (≈ 0.186 µM)
- MBC (S. aureus S-234; read-out: MBC): 0.125 µg/mL (≈ 0.388 µM)
- MIC (S. aureus S-234; read-out: MIC): 0.06 µg/mL (≈ 0.186 µM)
- MBC (S. faecalis 4510; read-out: MBC): 0.5 µg/mL (≈ 1.55 µM)
- MIC (S. faecalis 4510; read-out: MIC): 0.5 µg/mL (≈ 1.55 µM)
- MBC (S. aureus (25923); read-out: MBC): 0.125 µg/mL (≈ 0.388 µM)
- MIC (S. aureus (25923); read-out: MIC): 0.125 µg/mL (≈ 0.388 µM)
- MBC (S. aureus 34-81; read-out: MBC): 0.06 µg/mL (≈ 0.186 µM)
- MIC (S. aureus 34-81; read-out: MIC): 0.06 µg/mL (≈ 0.186 µM)
- MBC (S. epidermidis (12228); read-out: MBC): 0.25 µg/mL (≈ 0.776 µM)
- MIC (S. epidermidis (12228); read-out: MIC): 0.25 µg/mL (≈ 0.776 µM)

Reference: US4698350A, “1-ethyl-6-fluoro-1,4-dihydro- 7-(2,6-dimethyl-4-pyridinyl)-4-oxo-3-quinolinecarboxylic acid and antibacterial use thereof” (Sterling Drug Inc., priority 1984, dated 1987)
